According to patent US20250122219A1 (priority 2023, published 2025):
Where two headings read alike, the source gives them in different places.

Experiments:
HIV-1 (IIIB) = test: Antiviral assay in MT-4 cells; format: cell-based
Procedure: (§1) Compounds were tested in a high-throughput 384-well assay format for their ability to inhibit the replication of HIV-1 (IIIB) in MT-4 cells. Compounds were serially diluted (1.3) in DMSO on 384-well polypropylene plates and further diluted 200-fold into complete RPMI media (10% FBS, 1% P/S) using the Biotek Micro Flow and Labcyte ECHO acoustic dispenser. Each plate contained up to 8 test compounds, with negative (No Drug Control) and 5 μM AZT positive controls. MT-4 cells were pre-infected with 10 μL of either RPMI (mock-infected) or a fresh 1:250 dilution of HIV-1 IIIB concentrated virus stock. Infected and uninfected MT-4 cells were further diluted in complete RPMI media and added to each plate using a Micro Flow dispenser. After 5 days incubation in a humidified and temperature controlled incubator (37° C.), Cell Titer Glo (Promega) was added to the assay plates and chemiluminescence read using an Envision plate-reader.

[1] = Cytotoxicity assay in MT-4 cells; format: cell-based; details: human; uninfected MT-4 cells, 5 days incubation, Cell Titer Glo; read-out: MT4 CC50
Procedure: as §1
Assays were performed as above except uninfected MT-4 cells were added to each well containing test compound. In addition, […] puromycin was added to the last column of each assay plate to assess a base level of cytotoxicity.

[2] = Human immunodeficiency virus 1, MT4, 120 h, HIV-1 IIIB in MT-4 cells, 5 days incubation, Cell Titer Glo, read-out: MT4 EC50

| EC50 (HIV-1 (IIIB); [2]) [nM] | Compound | CC50 at 5 days [1] [µM] | EC50 (HIV-1 (IIIB); Human immunodeficiency virus 1, IIIB, MT4, 120 h, read-out: MT4 EC50 (nM)) [nM] |
| --- | --- | --- | --- |
| 1.48 | COCCOC(=O)Oc1c2n(cc(C(=O)NCc3ccc(F)cc3F)c1=O)[C@@H]1CN(C2=O)[C@@H](C)CC[C@]12CC(OC)=NO2 [Example 1, (3′S,5S,7′R)-10′-((2,4-difluorobenzyl)carbamoyl)-3-methoxy-3′-methyl-1′,11′-dioxo-1′,4′,5′,11′-tetrahydro-3′H,4H,7′H-spiro[isoxazole-5,6′-[2,7]methanopyrido[1,2-a][1],4diazonin]-12′-yl (2-methoxyethyl) carbonate] | 10.9 |  |
|  | COCCOCCOC(=O)Oc1c2n(cc(C(=O)NCc3ccc(F)cc3F)c1=O)[C@@H]1CN(C2=O)[C@@H](C)CC[C@]12CC(OC)=NO2 [Example 2, (3′S,5S,7′R)-1O′-((2,4-difluorobenzyl)carbamoyl)-3-methoxy-3′-methyl-1′,11′-dioxo-1′,4′,5′,11′-tetrahydro-3′H,4H,7′H-spiro[isoxazole-5,6′-[2,7]methanopyrido[1,2-a][1,4]diazonin]-12′-yl (2-(2-methoxyethoxy)ethyl) carbonate] | 11.5 | 0.79 |
| 15.4 | COCCOCCOC(=O)OCOc1c2n(cc(C(=O)NCc3ccc(F)cc3F)c1=O)[C@@H]1CN(C2=O)[C@@H](C)CC[C@]12CC(OC)=NO2 [Example 4, (((3′S,5S,7′R)-10′-((2,4-difluorobenzyl)carbamoyl)-3-methoxy-3′-methyl-1′,11′-dioxo-1′,4′,5′,11′-tetrahydro-3′H,4H,7′H-spiro[isoxazole-5,6′-[2,7]methanopyrido[1,2-a][1,4]diazonin]-12′-yl)oxy)methyl (2-(2-methoxyethoxy)ethyl) carbonate] | ≥ 50 |  |
| 9.48 | CCCCCCCCCCCCCCCCCC(=O)Oc1c2n(cc(C(=O)NCc3ccc(F)cc3F)c1=O)[C@@H]1CN(C2=O)[C@@H](C)CC[C@]12CC(OC)=NO2 [Example 6, (3′S,5S,7′R)-10′-((2,4-difluorobenzyl)carbamoyl)-3-methoxy-3′-methyl-1′,11′-dioxo-1′,4′,5′,11′-tetrahydro-3′H,4H,7′H-spiro[isoxazole-5,6′-[2,7]methanopyrido[1,2-a][1,4]diazonin]-12′-yl stearate] | ≥ 50 |  |
| 7.46 | CCCCC/C=C\C/C=C\CCCCCCCC(=O)Oc1c2n(cc(C(=O)NCc3ccc(F)cc3F)c1=O)[C@@H]1CN(C2=O)[C@@H](C)CC[C@]12CC(OC)=NO2 [Example 7, (3′S,5S,7′R)-10′-((2,4-difluorobenzyl)carbamoyl)-3-methoxy-3′-methyl-1′,11′-dioxo-1′,4′,5′,11′-tetrahydro-3′H,4H,7′H-spiro[isoxazole-5,6′-[2,7]methanopyrido[1,2-a][1,4]diazonin]-12′-yl (9Z,12Z)-octadeca-9,12-dienoate] | ≥ 50 |  |
| 1.61 | COCCOC(=O)Oc1c2n(cc(C(=O)NCc3ccc(F)cc3F)c1=O)[C@@H]1CN(C2=O)[C@@H](C)CC[C@]12CC(C)=NO2 [Example 9, (3′S,5S,7′R)-10′-((2,4-difluorobenzyl)carbamoyl)-3,3′-dimethyl-1′,11′-dioxo-1′,4′,5′,11′-tetrahydro-3′H,4H,7′H-spiro[isoxazole-5,6′-[2,7]methanopyrido[1,2-a][1,4]diazonin]-12′-yl (2-methoxyethyl) carbonate] | 19.6 |  |
| 4.84 | CCCCCCCCCCCCCC(=O)Oc1c2n(cc(C(=O)NCc3ccc(F)cc3F)c1=O)[C@@H]1CN(C2=O)[C@@H](C)CC[C@]12CC(C)=NO2 [Example 13, (3′S,5S,7′R)-10′-((2,4-difluorobenzyl)carbamoyl)-3,3′-dimethyl-1′,11′-dioxo-1′,4′,5′,11′-tetrahydro-3′H,4H,7′H-spiro[isoxazole-5,6′-[2,7]methanopyrido[1,2-a][1,4]diazonin]-12′-yl tetradecanoate] | 13.4 |  |
| 6.46 | CCCCCCCCCCCCCCCC(=O)Oc1c2n(cc(C(=O)NCc3ccc(F)cc3F)c1=O)[C@@H]1CN(C2=O)[C@@H](C)CC[C@]12CC(C)=NO2 [Example 14, (3′S,5S,7′R)-10′-((2,4-difluorobenzyl)carbamoyl)-3,3′-dimethyl-1′,11′-dioxo-1′,4′,5′,11′-tetrahydro-3′H,4H,7′H-spiro[isoxazole-5,6′-[2,7]methanopyrido[1,2-a][1,4]diazonin]-12′-yl palmitate] | ≥ 50 |  |
| 2.76 | CC1=NO[C@@]2(CC[C@H](C)N3C[C@H]2n2cc(C(=O)NCc4ccc(F)cc4F)c(=O)c(OCOC(=O)C(C)(C)C)c2C3=O)C1 [Example 18, (((3′S,5S,7′R)-10′-((2,4-difluorobenzyl)carbamoyl)-3,3′-dimethyl-1′,11′-dioxo-1′,4′,5′,11′-tetrahydro-3′H,4H,7′H-spiro[isoxazole-5,6′-[2,7]methanopyrido[1,2-a][1,4]diazonin]-12′-yl)oxy)methyl pivalate] | 20.1 |  |
|  | CCCCCCCCCCCCCCOC(=O)OCOc1c2n(cc(C(=O)NCc3ccc(F)cc3F)c1=O)[C@@H]1CN(C2=O)[C@@H](C)CC[C@]12CC(OC)=NO2 [Example 193, (((3′S,5S,7′R)-10′-((2,4-difluorobenzyl)carbamoyl)-3-methoxy-3′-methyl-1′,11′-dioxo-1′,4′,5′,11′-tetrahydro-3′H,4H,7′H-spiro[isoxazole-5,6′-[2,7]methanopyrido[1,2-a][1,4]diazonin]-12′-yl)oxy)methyl tetradecyl carbonate] | ≥ 50 |  |
|  | CC1=NO[C@@]2(CC[C@H](C)N3C[C@H]2n2cc(C(=O)NCc4ccc(F)cc4F)c(=O)c(OCOC(=O)OCCCCCCC(C)C)c2C3=O)C1 [Example 209, (((3′S,5S,7′R)-10′-((2,4-difluorobenzyl)carbamoyl)-3,3′-dimethyl-1′,11′-dioxo-1′,4′,5′,11′-tetrahydro-3′H,4H,7′H-spiro[isoxazole-5,6′-[2,7]methanopyrido[1,2-a][1,4]diazonin]-12′-yl)oxy)methyl (7-methyloctyl) carbonate] | ≥ 50 |  |
|  | COC1=NO[C@@]2(CC[C@H](C)N3C[C@H]2n2cc(C(=O)NCc4ccc(F)cc4F)c(=O)c(OCOC(=O)OCCCCCCC(C)C)c2C3=O)C1 [Example 210, (((3′S,5S,7′R)-10′-((2,4-difluorobenzyl)carbamoyl)-3-methoxy-3′-methyl-1′,11′-dioxo-1′,4′,5′,11′-tetrahydro-3′H,4H,7′H-spiro[isoxazole-5,6′-[2,7]methanopyrido[1,2-a][1,4]diazonin]-12′-yl)oxy)methyl (7-methyloctyl) carbonate] | ≥ 50 |  |
|  | COC[C@H](C)OC(=O)OCOc1c2n(cc(C(=O)NCc3ccc(F)cc3F)c1=O)[C@@H]1CN(C2=O)[C@@H](C)CC[C@]12CC(C)=NO2 [Example 215, (((3′S,5S,7′R)-10′-((2,4-difluorobenzyl)carbamoyl)-3,3′-dimethyl-1′,11′-dioxo-1′,4′,5′,11′-tetrahydro-3′H,4H,7′H-spiro[isoxazole-5,6′-[2,7]methanopyrido[1,2-a][1,4]diazonin]-12′-yl)oxy)methyl ((S)-1-methoxypropan-2-yl) carbonate] | ≥ 50 |  |
|  | COC[C@H](C)OC(=O)OCOc1c2n(cc(C(=O)NCc3ccc(F)cc3F)c1=O)[C@@H]1CN(C2=O)[C@@H](C)CC[C@]12CC(OC)=NO2 [Example 216, (((3′S,5S,7′R)-10′-((2,4-difluorobenzyl)carbamoyl)-3-methoxy-3′-methyl-1′,11′-dioxo-1′,4′,5′,11′-tetrahydro-3′H,4H,7′H-spiro[isoxazole-5,6′-[2,7]methanopyrido[1,2-a][1,4]diazonin]-12′-yl)oxy)methyl ((S)-1-methoxypropan-2-yl) carbonate] | ≥ 50 |  |
|  | CO[C@H](C)COC(=O)OCOc1c2n(cc(C(=O)NCc3ccc(F)cc3F)c1=O)[C@@H]1CN(C2=O)[C@@H](C)CC[C@]12CC(C)=NO2 [Example 217, (((3′S,5S,7′R)-10′-((2,4-difluorobenzyl)carbamoyl)-3,3′-dimethyl-1′,11′-dioxo-1′,4′,5′,11′-tetrahydro-3′H,4H,7′H-spiro[isoxazole-5,6′-[2,7]methanopyrido[1,2-a][1,4]diazonin]-12′-yl)oxy)methyl ((R)-2-methoxypropyl) carbonate] | 24.6 |  |
|  | CO[C@@H](C)COC(=O)OCOc1c2n(cc(C(=O)NCc3ccc(F)cc3F)c1=O)[C@@H]1CN(C2=O)[C@@H](C)CC[C@]12CC(C)=NO2 [Example 219, (((3′S,5S,7′R)-10′-((2,4-difluorobenzyl)carbamoyl)-3,3′-dimethyl-1′,11′-dioxo-1′,4′,5′,11′-tetrahydro-3′H,4H,7′H-spiro[isoxazole-5,6′-[2,7]methanopyrido[1,2-a][1,4]diazonin]-12′-yl)oxy)methyl ((S)-2-methoxypropyl) carbonate] | 33.9 |  |
|  | COC1=NO[C@@]2(CC[C@H](C)N3C[C@H]2n2cc(C(=O)NCc4ccc(F)cc4F)c(=O)c(OCOC(=O)OC[C@H](C)OC)c2C3=O)C1 [Example 220, (((3′S,5S,7′R)-10′-((2,4-difluorobenzyl)carbamoyl)-3-methoxy-3′-methyl-1′,11′-dioxo-1′,4′,5′,11′-tetrahydro-3′H,4H,7′H-spiro[isoxazole-5,6′-[2,7]methanopyrido[1,2-a][1,4]diazonin]-12′-yl)oxy)methyl ((S)-2-methoxypropyl) carbonate] | 41.6 |  |
